{
  "source": "patent US12558366B2",
  "about": "“Bacterial DNA gyrase inhibitors and methods of use thereof” (THE FLORIDA INTERNATIONAL UNIVERSITY BOARD OF TRUSTEES, priority 2021, dated 2026)",
  "key": {"Mtb": {"system": "Mtb", "test": "Mtb inhibition (antibacterial activity)", "format": "cell-based, Mycobacterium tuberculosis", "design": "% Mtb inhibition: concentration or dose not given beside the values", "settings": "for % Mtb inhibition: Table 5"}, "E. coli (ATCC 25922)": {"system": "E. coli (ATCC 25922)", "test": "Minimum inhibitory concentration, E. coli", "format": "cell-based", "settings": "Escherichia coli, ATCC25922, read-out: Minimum Inhibitory Concentration E. coli", "method": "(§1) Antibacterial minimum inhibitory concentrations (MICs) were obtained from three independent experiments using broth microdilution methods in 96-well plates according to Clinical and Laboratory Standards Institute guidelines. Cells were culture from singles colonies in MHIIB medium for 24 h at 37° C. in agitation (200 RPM). The cultures were then diluted using the same media to reach an OD600 of 0.1. Then, 50 μL of the diluted cultures were added to the plates holding 50 μL of serially diluted compounds in MHIIB. The plates were incubated at 37° C. for 20 h. The starting inoculum was fixated to 10^5 colony-forming units per ml."}, "B. subtilis (ATCC 6633)": {"system": "B. subtilis (ATCC 6633)", "test": "Minimum inhibitory concentration, B. subtilis", "format": "cell-based", "settings": "Bacillus subtilis, ATCC6633; Tables 3a-3c", "method": "as §1"}, "E. coli imp": {"system": "E. coli imp", "test": "microbe, parasite or virus in culture", "format": "cell-based", "settings": "Escherichia coli, read-out: Minimum Inhibitory Concentration E. coli imp", "method": "as §1"}, "DNA": {"system": "DNA", "test": "DNA binding, intercalation and photo-induced crosslinking"}, "E. coli DNA gyrase [1]": {"target": "T1, E. coli DNA gyrase (Escherichia coli, UniProt P0AES4+P0AES6)", "T1 sequence (P0AES4 whole entry, one chain of several)": "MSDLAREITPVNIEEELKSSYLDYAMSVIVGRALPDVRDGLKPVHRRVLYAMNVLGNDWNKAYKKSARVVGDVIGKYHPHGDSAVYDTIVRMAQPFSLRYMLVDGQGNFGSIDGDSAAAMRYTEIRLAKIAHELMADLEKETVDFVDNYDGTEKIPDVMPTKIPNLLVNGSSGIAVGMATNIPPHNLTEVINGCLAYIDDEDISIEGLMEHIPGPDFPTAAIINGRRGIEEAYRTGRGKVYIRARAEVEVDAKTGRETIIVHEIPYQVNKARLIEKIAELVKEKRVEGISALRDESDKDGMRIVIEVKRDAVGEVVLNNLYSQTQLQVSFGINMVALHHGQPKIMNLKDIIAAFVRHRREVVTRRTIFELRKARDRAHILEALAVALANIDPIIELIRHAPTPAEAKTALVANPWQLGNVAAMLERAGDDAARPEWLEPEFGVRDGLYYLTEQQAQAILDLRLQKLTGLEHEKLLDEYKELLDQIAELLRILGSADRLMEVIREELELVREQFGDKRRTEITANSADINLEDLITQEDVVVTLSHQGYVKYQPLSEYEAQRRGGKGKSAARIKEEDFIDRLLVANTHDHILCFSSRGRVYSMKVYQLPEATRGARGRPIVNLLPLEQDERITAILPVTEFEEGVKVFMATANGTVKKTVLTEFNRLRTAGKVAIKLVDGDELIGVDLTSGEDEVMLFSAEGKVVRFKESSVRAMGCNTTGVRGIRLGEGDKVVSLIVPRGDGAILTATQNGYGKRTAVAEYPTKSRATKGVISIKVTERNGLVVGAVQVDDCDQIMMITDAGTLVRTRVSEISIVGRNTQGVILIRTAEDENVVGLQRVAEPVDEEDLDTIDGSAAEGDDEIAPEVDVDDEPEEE", "test": "Agarose gel-based DNA gyrase inhibition assays", "format": "biochemical", "method": "100 ng of DNA gyrase was used to supercoil the rx pAB1 in the presence of different concentrations of a gyrase inhibitor. […] Samples were analyzed by electrophoresis in 1% w/v agarose gels followed by ethidium bromide staining and photographed under UV light."}, "E. coli DNA gyrase [2]": {"target": "T1, E. coli DNA gyrase", "test": "E. coli DNA gyrase inhibition (agarose gel-based and/or SDFQ-based, not specified per value)", "format": "biochemical"}, "Mtb DNA gyrase": {"target": "Mtb DNA gyrase (Mycobacterium tuberculosis, UniProt P9WG45+P9WG47)", "sequence (P9WG45 whole entry)": "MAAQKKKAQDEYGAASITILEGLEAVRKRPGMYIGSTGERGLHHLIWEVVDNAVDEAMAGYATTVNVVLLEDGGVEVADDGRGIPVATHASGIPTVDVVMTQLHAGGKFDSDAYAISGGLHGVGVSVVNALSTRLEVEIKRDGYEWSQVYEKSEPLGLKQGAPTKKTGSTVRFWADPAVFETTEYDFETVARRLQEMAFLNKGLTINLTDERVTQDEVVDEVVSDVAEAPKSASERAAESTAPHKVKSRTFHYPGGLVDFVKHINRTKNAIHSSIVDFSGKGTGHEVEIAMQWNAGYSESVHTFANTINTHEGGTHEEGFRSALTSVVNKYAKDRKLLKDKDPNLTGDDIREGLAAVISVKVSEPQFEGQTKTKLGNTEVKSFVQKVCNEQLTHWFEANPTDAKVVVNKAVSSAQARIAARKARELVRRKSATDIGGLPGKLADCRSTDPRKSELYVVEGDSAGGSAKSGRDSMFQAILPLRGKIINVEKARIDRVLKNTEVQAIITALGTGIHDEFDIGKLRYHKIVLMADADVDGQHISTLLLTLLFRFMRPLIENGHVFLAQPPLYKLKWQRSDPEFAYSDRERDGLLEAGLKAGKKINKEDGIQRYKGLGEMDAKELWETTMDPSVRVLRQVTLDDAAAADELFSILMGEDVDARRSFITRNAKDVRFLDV", "sequence (P9WG47 whole entry)": "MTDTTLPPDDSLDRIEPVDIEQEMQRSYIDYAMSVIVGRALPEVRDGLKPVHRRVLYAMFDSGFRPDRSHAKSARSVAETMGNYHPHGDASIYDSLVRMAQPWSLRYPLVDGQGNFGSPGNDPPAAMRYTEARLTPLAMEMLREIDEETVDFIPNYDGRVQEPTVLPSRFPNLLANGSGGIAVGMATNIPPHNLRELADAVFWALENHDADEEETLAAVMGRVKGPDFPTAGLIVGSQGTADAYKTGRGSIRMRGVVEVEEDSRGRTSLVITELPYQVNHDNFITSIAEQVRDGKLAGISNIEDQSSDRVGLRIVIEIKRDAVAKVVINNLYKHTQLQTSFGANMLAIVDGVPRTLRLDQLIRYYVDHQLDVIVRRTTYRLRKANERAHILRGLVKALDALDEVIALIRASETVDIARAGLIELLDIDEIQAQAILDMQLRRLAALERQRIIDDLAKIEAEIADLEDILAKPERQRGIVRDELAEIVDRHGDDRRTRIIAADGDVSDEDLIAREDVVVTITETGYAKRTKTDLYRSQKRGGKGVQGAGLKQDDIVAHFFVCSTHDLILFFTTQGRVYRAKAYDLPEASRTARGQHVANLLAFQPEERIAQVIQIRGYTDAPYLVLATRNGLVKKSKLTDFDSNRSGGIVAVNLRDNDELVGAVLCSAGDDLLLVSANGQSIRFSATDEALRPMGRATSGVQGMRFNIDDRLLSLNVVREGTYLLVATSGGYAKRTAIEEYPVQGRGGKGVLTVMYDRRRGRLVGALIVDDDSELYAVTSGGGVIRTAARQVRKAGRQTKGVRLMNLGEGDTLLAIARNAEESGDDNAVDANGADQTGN", "test": "Mtb DNA gyrase inhibition", "format": "biochemical"}, "MRSA (ATCC BAA44)": {"system": "MRSA (ATCC BAA44)", "test": "microbe, parasite or virus in culture", "format": "cell-based, S. aureus", "settings": "Staphylococcus aureus, read-out: Minimum Inhibitory Concentration S. aureus MRSA", "method": "as §1"}, "S. aureus (ATCC 14775)": {"system": "S. aureus (ATCC 14775)", "test": "Minimum inhibitory concentration, S. aureus", "format": "cell-based", "settings": "Staphylococcus aureus, ATCC14775; Tables 3a-3c; read-out: Minimum Inhibitory Concentration S. aureus", "method": "as §1"}, "E. coli DNA gyrase [3]": {"target": "T1, E. coli DNA gyrase", "test": "E. coli DNA gyrase ATPase assays", "format": "biochemical", "method": "E. coli DNA gyrase ATPase assays were performed in 60 μl, of 1×gyrase ATPase buffer (10 mM Tris.HCl (pH 7.5), 0.2 mM EDTA, 1 mM magnesium chloride, 1 mM DTT, and 2% (w/v) glycerol) containing 50 nM E. coli DNA gyrase, 200 ng rx pAB1, 0.8 mM Phosphoenol pyruvate, 1.2 units of Pyruvate kinase, 1.7 units of lactate dehydrogenase, and 0.4 mM of NADH at 37° C. After the reaction mixtures are incubated on ice for 5 minutes, 2 mM of ATP is added to initiate the reaction. Absorbance at OD340 nm is monitored for up to 30 minutes at 37° C. in a spectrophotometer."}, "J774": {"system": "J774", "test": "Cytotoxicity in J774 cells", "format": "cell-based", "settings": "highest concentration 200 μM"}, "HepG2": {"system": "HepG2", "test": "Cytotoxicity in HepG2 cells", "format": "cell-based", "settings": "highest concentration 200 μM"}},
  "data": [
    {"smiles": "Cc1c(CCC(=O)O)c(=O)oc2c(C)c3occ(-c4ccc(Cl)cc4)c3cc12", "note": "[Compound 120]", "values": [
      {"measurement": "% Mtb inhibition", "setting": "Mtb", "result": 18.7, "unit": "%"},
      {"measurement": "MIC", "setting": "E. coli (ATCC 25922)", "result": "> 200", "unit": "µM"},
      {"measurement": "MIC", "setting": "B. subtilis (ATCC 6633)", "result": "> 200", "unit": "µM"},
      {"measurement": "MIC", "setting": "E. coli imp", "result": "> 200", "unit": "µM"}
    ]},
    {"smiles": "CCOC(=O)c1cc2c(=Cc3ccc(N(C)C)cc3)c3ccccc3n2[n+]1C.O=S(=O)([O-])C(F)(F)F", "note": "[Compound 239]", "values": [
      {"measurement": "DNA intercalator", "setting": "DNA", "result": "DNA intercalators"}
    ]},
    {"smiles": "O=C1Nc2ccc(Br)cc2C1=NNc1ccc(C(=O)O)cc1", "note": "[Compound 111]", "values": [
      {"measurement": "MIC", "setting": "B. subtilis (ATCC 6633)", "result": 100, "unit": "µM"},
      {"measurement": "inhibition of E. coli DNA gyrase activities", "setting": "E. coli DNA gyrase [1]; 50 μM of compounds", "result": "completely inhibited"}
    ]},
    {"smiles": "CN(C)c1ccc2cc3ccc(N(C)C)cc3nc2c1", "note": "[Compound 249]", "values": [
      {"measurement": "DNA intercalator", "setting": "DNA", "result": "DNA intercalators"}
    ]},
    {"smiles": "Cc1coc2cc3oc(=O)c(CCC(=O)O)c(C)c3cc12", "note": "[Compound 122]", "values": [
      {"measurement": "inhibition of E. coli DNA gyrase activities", "setting": "E. coli DNA gyrase [2]", "result": "All psoralen derivatives inhibited E. coli and Mtb DNA gyrase activities except compounds 118 and 122"},
      {"measurement": "% Mtb inhibition", "setting": "Mtb", "result": 15.7, "unit": "%"},
      {"measurement": "inhibition of Mtb DNA gyrase activities", "setting": "Mtb DNA gyrase", "result": "All psoralen derivatives inhibited E. coli and Mtb DNA gyrase activities except compounds 118 and 122"},
      {"measurement": "MIC", "setting": "MRSA (ATCC BAA44)", "result": 200, "unit": "µM"},
      {"measurement": "MIC", "setting": "S. aureus (ATCC 14775)", "result": 200, "unit": "µM"}
    ]},
    {"smiles": "CNC(=O)[C@H]1O[C@@H](n2cnc3c(NCc4ccc(N)cc4)ncnc32)[C@H](O)[C@@H]1O", "note": "[AB-MECA, reference compound]", "values": [
      {"measurement": "inhibition of Mtb DNA gyrase activities", "setting": "Mtb DNA gyrase", "result": "did not inhibit"}
    ]},
    {"smiles": "CNC(=O)[C@H]1O[C@@H](n2cnc3c(NCc4cccc(I)c4)ncnc32)[C@H](O)[C@@H]1O", "note": "[IB-MECA]", "values": [
      {"measurement": "inhibition of Mtb DNA gyrase activities", "setting": "Mtb DNA gyrase", "result": "did not inhibit"},
      {"measurement": "inhibition of the ATPase activities of E. coli DNA gyrase", "setting": "E. coli DNA gyrase [3]", "result": "inhibition of the ATPase activities"},
      {"measurement": "mode of inhibition (ATP competitive)", "setting": "E. coli DNA gyrase [3]", "result": "ATP competitive inhibitors"}
    ]},
    {"smiles": "COc1ccc2c(c1)/c(=C\\c1ccc(N(C)C)cc1)c1cc(-c3ccccc3)[n+](C)n12.O=S(=O)([O-])C(F)(F)F", "note": "[Compound 237]", "values": [
      {"measurement": "DNA intercalator", "setting": "DNA", "result": "DNA intercalators"}
    ]},
    {"smiles": "Cc1c(CC(=O)O)c(=O)oc2c(C)c3occ(-c4ccc(Br)cc4)c3cc12", "note": "[Compound 117]", "values": [
      {"measurement": "% Mtb inhibition", "setting": "Mtb", "result": 24.7, "unit": "%"},
      {"measurement": "MIC", "setting": "E. coli (ATCC 25922)", "result": "> 200", "unit": "µM"},
      {"measurement": "MIC", "setting": "B. subtilis (ATCC 6633)", "result": "> 200", "unit": "µM"},
      {"measurement": "MIC", "setting": "E. coli imp", "result": "> 200", "unit": "µM"}
    ]},
    {"smiles": "O=C(Nc1cccc(C2=NCCN2)c1)Nc1cccc(C2=NCCN2)c1", "note": "[Compound 79]", "values": [
      {"measurement": "MIC", "setting": "E. coli imp", "result": 50, "unit": "µM"},
      {"measurement": "inhibition of E. coli DNA gyrase activities", "setting": "E. coli DNA gyrase [1]; 200 μM of compounds", "result": "completely inhibited"}
    ]},
    {"smiles": "Cc1c(CCC(=O)O)c(=O)oc2c(C)c3occ(-c4ccc(Br)cc4)c3cc12", "note": "[Compound 48]", "values": [
      {"measurement": "IC50", "setting": "E. coli DNA gyrase [2]; Table 2 values, read-out: IC50 ( ≤15 μM) IC50", "result": 4.28, "unit": "µM"},
      {"measurement": "% Mtb inhibition", "setting": "Mtb", "result": 38.6, "unit": "%"},
      {"measurement": "MIC", "setting": "E. coli (ATCC 25922)", "result": "> 200", "unit": "µM"},
      {"measurement": "mode of inhibition (ATP competitive)", "setting": "E. coli DNA gyrase [3]", "result": "ATP competitive inhibitor"},
      {"measurement": "MIC", "setting": "B. subtilis (ATCC 6633)", "result": "> 200", "unit": "µM"},
      {"measurement": "MIC", "setting": "E. coli imp", "result": "> 200", "unit": "µM"}
    ]},
    {"smiles": "Cc1c(CCC(=O)O)c(=O)oc2c(C)c3occ(-c4ccccc4)c3cc12", "note": "[Compound 121]", "values": [
      {"measurement": "% Mtb inhibition", "setting": "Mtb", "result": 36.7, "unit": "%"},
      {"measurement": "MIC", "setting": "E. coli (ATCC 25922)", "result": "> 200", "unit": "µM"},
      {"measurement": "MIC", "setting": "E. coli imp", "result": 100, "unit": "µM"},
      {"measurement": "inhibition of E. coli DNA gyrase activities", "setting": "E. coli DNA gyrase [1]; 50 μM of compounds", "result": "completely inhibited"}
    ]},
    {"smiles": "Brc1ccc2c(c1)-c1ccccc1C1=NCCN12", "note": "[Compound 217]", "values": [
      {"measurement": "DNA intercalator", "setting": "DNA", "result": "DNA intercalators"}
    ]},
    {"smiles": "O=S(=O)(Cl)c1ccc(Oc2ccc(S(=O)(=O)Cl)cc2)cc1", "note": "[NSC212]", "values": [
      {"measurement": "% inhibition (20 μM)", "setting": "Mtb; 20 μM, Table 6", "result": 84.6, "unit": "%"},
      {"measurement": "IC50", "setting": "J774", "result": "> 200", "unit": "µM"},
      {"measurement": "IC50", "setting": "HepG2", "result": "> 200", "unit": "µM"}
    ]},
    {"smiles": "Nc1c2ccccc2nc2ccccc12", "note": "[Compound 247]", "values": [
      {"measurement": "DNA intercalator", "setting": "DNA", "result": "DNA intercalators"}
    ]},
    {"smiles": "CN(C)CCNC(=O)c1cccc2nc3cccc(F)c3nc12.Cl", "note": "[Compound 241]", "values": [
      {"measurement": "DNA intercalator", "setting": "DNA", "result": "DNA intercalators"}
    ]}
  ]
}
